Test [1] concerns the target T1, survivin (Homo sapiens, UniProt O15392).
T1 construct: transferred to the survivin1-142 construct used in the present study; His8 tag (pHIS8 vector, thrombin-cleavable); made in house; host or cells: E. coli BL21(DE3) star
Nature of the test: PEPperCHIP peptide microarray, survivin interaction. The class given is binding. The note with it: 1 μg/mL survivin. The source says:
We were looking for potential direct interactions between survivin and short peptide sequences originating from PRC2 subunits and other proteins involved in histone modifications based on the in vivo results. Therefore, we created a peptide microarray of overlapping peptides obtained from EZH2, EED, SUZ12, and JARID2 to investigate how survivin interacts with the activity of the PRC2 complex. These subunits form the core of PRC2, and the interaction of survivin with the PRC2 molecular scaffold indicates a potentially disruptive role for survivin in PRC2 function. The fluorescence signal generated by labeled survivin is compared in Figure 2 as a function of position along the polypeptide chain of PRC2 subunits. Figure S1 depicts the raw fluorescence images. Moreover, the microarray fluorescence intensities projected on the three-dimensional structure of the PRC2 core complex are shown in Figure 3. The whole dataset is deposited at the Zenodo data base.
The location of survivin on the peptide microarray was clearly correlated with the amino acid content of the peptide at 1 μg/mL survivin concentration. When evaluating how accurate the predictions were, one should keep in mind that the primary and higher-order structures of the peptide were not at all considered in this analysis. Mislabeling peptides is possible for multiple reasons. The smallest fluorescence signal was chosen as the limit of detection and photon-counting errors may cause weak interactions to be undetected at low fluorescence intensities. Moreover, if the fluorescence intensity of experimental duplicates varied by more than 40%, a peptide was classified as non-interacting even if the lack of reproducibility is ambiguous evidence for the lack of interaction. […] Reducing the number of hidden layer perceptrons from 100 (the default value) to 9 had no effect on the classifier’s performance. Even a 15 amino acid peptide segment composition gives a high degree of uniqueness and highly scalable intensity for survivin-peptide interaction. Survivin has a non-globular structure with no deep binding pockets.
A peptide microarray was designed using the protein sequences from: Cdk1 (P06493), KAT2A/GCN5 (Q92830), SPI1/PU1 (P17947), SUZ12 (Q15022), EED (O75530), JADE3 (Q92613), DIABLO/SMAC (Q9NR28), BOREALIN (Q53HL2), INCENP (Q9NQS7), SGOL1 (Q5FBB7), SGOL2 (Q562F6), EZH2 (Q15910), JARID2 (Q92833), Histone H3 (P68431), AURORAKB (Q96GD4), JADE1 (Q6IE81), JTB (O76095), EVI5 (O60447), RAN (P62826), USP9X (Q93008), C-IAP1 (Q13490), STAT3 (P40763), BRUCE/APOLLON (Q9NR09), XPO1 (O14980), CDX2 (Q99626), Msx2 (P35548), RBM15 (Q96T37), PHF21A (Q96BD5), PHF8 (Q9UPP1), DIDO (Q9BTC0), JADE2 (Q9NQC1) and HASPIN (Q8TF76). The Uniprot ID is shown in parenthesis. The protein sequences were divided into 15 amino acid long peptides with a 10 amino acid overlap. To investigate background interactions with the protein-derived peptides that could interfere with the main assays, one of the PEPperCHIP Peptide Microarrays (PEPperPRINT Gmbh) was pre-staining with the secondary 6x His Tag Antibody DyLight680 antibody at a dilution of 1:1000 and with the monoclonal anti-HA (12CA5)-DyLight800 control antibody at a dilution of 1:1000. Subsequent incubation of other peptide microarray copies with survivin at a concentration of 1 μg/ml in incubation buffer was followed by staining with the secondary 6x His Tag Antibody DyLight680 antibody (Rockland Immunochemicals, Pottstown, PA, USA) and the monoclonal anti-HA (12CA5)-DyLight800 control antibody (Rockland Immunochemicals, Pottstown, PA, USA). The read-out was performed by scanning intensities of 7/7 (red/green). As an internal quality control, HA and His tag control peptides were stained simultaneously to confirm assay quality and to facilitate grid alignment for data quantification. The LI-COR Odyssey Imaging System was used for read-out, and the PepSlide Analyzer was used for quantification of spot intensities and peptide annotation. […]

The target of test [2] is T1, survivin. Nature of the test: Biolayer interferometry (reverse), immobilized survivin, EZH2 peptide as analyte. It counts as binding. The following applies: peptide 21.2 µM. The protocol:
Other phases in the reverse experiment follow the same parameters as in non-reverse experiments mentioned above.
Δλ(t) values were converted to dimensionless quantities by dividing the wavelength shifts with 1 nm prior to the analysis. To develop the model, we tentatively assumed Langmuir’s 1:1 model.[85] The kinetic modelling was performed with the pymc3 python package[66] using a Bayesian model: p(KD,app|lower=10^−15,upper=10^−3)=1/upper−lower p(k−1|lower=10^−20,upper=10)=1/upper−lower k1=k−1/KD,app p(A|lower=10^−6,upper=10)=1/upper−lower p(ε|lower=10^−6,upper=1)=1/upper−lower p(Δλ(0)|μ=⟨Δλi⟩,σ=1/10∑(Δλi−⟨Δλi⟩)^2/n)=1/2πσe^−1/2σ(Δλ(t)−μ)^2;Δλ(0)∈[10^−20,+∞]
The association and dissociation phases were modelled simultaneously, and the probability of wavelength shift during association phase was modeled as: p(Δλ(t)|μ=Ac/KD,app+c(1−e^−(k1c+k−1)t),σ=ε)=1/2πσe^−1/2σ(Δλ(t)−μ)^2
The probability of wavelength shift during the dissociation phase was modelled as: p(Δλ(t)|μ=Δλ(0)e^−k−1t,σ=ε)=1/2πσe^−1/2σ(Δλ(t)−μ)^2, where A and k1 are the amplitude and rate constant of the exponential association process, respectively. The concentration of the analyte is c and KD,app is the apparent dissociation constant. The dissociation rate constant is marked with k-1. ε represents the standard deviation of Δλ(t) . […]
In general terms: BLI is a label-free optical method that tracks binding on a fibre tip over time.

T1 sequence (O15392 whole entry): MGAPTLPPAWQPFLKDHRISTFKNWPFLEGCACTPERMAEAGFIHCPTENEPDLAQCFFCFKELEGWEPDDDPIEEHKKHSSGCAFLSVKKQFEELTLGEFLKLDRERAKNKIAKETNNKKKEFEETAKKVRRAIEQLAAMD

With “VELVNALGQYNDDDDDDDGD DPEEREEKQKDLEDHRDDKE [EZH2_172-211, PRC2-derived peptide, EZH2 residues 172–211, synthesized by Biomatik]”, the “Average FI (%)” value in test [1] (anti-His tag DyLight680 read-out, percentage of maximum fluorescence intensity units (64193) per peptide, 15-mer microarray peptides covering the residues) is recorded as 71%. Besides, the “Integrated FI” value in test [1] (in units of the maximum FI per peptide, 15-mer microarray peptides covering the residues) amounted to 4.28. The “survivin interaction / fluorescence on microarray (in words)” value in test [1] (peptide microarray) is on record as “high survivin-associated fluorescence intensity”. For the same sequence, in test [2] (posterior mean ± SD), the “k1 (association rate constant)” value was 45 ± 0.59 M⁻¹ s⁻¹. The “A (amplitude of association)” value in test [2] (posterior mean, SD 1.2×10-3) was 0.13 nm.

(Values after paper PMC10391610, “Survivin prevents the polycomb repressor complex 2 from methylating histone 3 lysine 27” (iScience, 2023).)
